Laboratory results reported in patent US12036222B2, “Methods of treating cancers overexpressing CARM1 with EZH2 inhibitors and a PARP inhibitor” (The Wistar Institut of Anatomy and Biology, priority 2018, dated 2024).

Columns and labels:
[1] = tested on: orthotopically-transplanted CARM1-expressing tumors; test: Intrabursal orthotopic xenograft model, CARM1-expressing A1847 cells; assay type: in vivo, NSG mice
Protocol: The protocols were approved by the Institutional Animal Care and Use Committee (IACUC). For in vivo experiments, the sample size of 5 mice per group was determined based on the data shown from in vitro experiments. Intrabursal orthotopic xenograft was performed as described in Bitler, et al. Nature Medicine (2015) 21:231-8 and Bitler et al. Cancer Research (2011) 71:6184-94. Briefly, 1×10^6 A1847 parental or A1847 CARM1 knockout cells were unilaterally injected into the ovarian bursa of 6-8-week old female immunocompromised NSG mice (n=5 per group). One week after injection the mice were randomized into two groups and treated with vehicle control (20% captisol) or GSK126 (50 mg/kg daily) for three weeks. At the end of the experiments, tumors were surgically dissected and tumor burden was calculated based on tumor weight. For survival experiments, after stopping the treatment, the mice were followed for mortality or when the tumor burden reached 10% of body weight as determined by The Wistar Institute IACUC guideline.
EZH2 inhibitors, such as GSK126, are used safely in clinical trials for hematopoietic malignancies (Ribrag et al. Eur J Cancer (2014) 50:197). To determine the effects of EZH2 inhibition in vivo on the growth of CARM1-expressing ovarian tumors, two xenograft models were utilized. […]

CARM1-depleted cells = test: Colony formation assay with CARM1-depleted cells; assay type: cell-based; conditions: CARM1-depleted vs normal cells, GSK126 vs DMSO
Protocol: To confirm the relationship between CARM1 overexpression and sensitivity to EZH2 inhibition, further studies were performed to assess the impact of CARM1 depletion. In FIG. 9, a Western blot of CARM1 and BAF155me2 in CARM1 depleted cells with a control (Actin) is shown. In addition, the results of a colony formation assay (unstained, magnified) with normal and CARM1-depleted cells, in DMSO (control) and treated with GSK126, are shown in FIG. 10. A colony formation assay with normal and CARM1-depleted cells, in DMSO (control) and after treatment with GSK126 is shown in FIG. 11, with the results quantified in FIG. 12. Finally, FIG. 13 illustrates the results of treatment of CARM1 depleted cells with GSK126.
500 to 5,000 cell were plated into a 24 well tissue culture plate and treated with the indicated compounds. Medium was changed every three days with appropriate drug doses for 12 days or until control wells became confluent. Colonies were washed twice with PBS and fixed with 10% methanol and 10% acetic acid in distilled water. Fixed colonies were stained with 0.005% crystal violet. Integrated density was measured using NIH ImageJ software.

[2] = tested on: promoter regions of the human DAB2, DLC1, and NOXA genes; test: ChIP-qPCR at promoters of EZH2/BAF155 target genes; assay type: cell-based; conditions: A1847 cells
Text: FIGS. 58 to 61 illustrate the results of a ChIP analysis using anti-EZH2 (FIG. 58), anti-H3K27Me3 (FIG. 59), anti-BAF155 (FIG. 60), or anti-RNA Pol II (FIG. 61) antibodies. An isotype matched IgG was used as a negative control. ChIP products were subjected to qPCR analysis using primers specific for the promoter regions of the human DAB2, DLC1, and NOXA genes. Data is representative of three independent experiments. * p<0.001 compared with IgG controls and #p<0.001 compared with parental controls.
ChIP was performed as described in Tu et al. Developmental Cell(2011) 21:1077-91. The following antibodies were used to perform ChIP: anti-H3K27Me3 (Cell Signaling, Cat. No: 9733), anti-BAF155 (Santa Cruz, Cat. No: sc-9746), anti-RNA polymerase II (Santa Cruz, Cat. No: sc-899) or anti-EZH2 (Cell Signaling, Cat. No: 5246). An isotype matched IgG was used as a negative control. ChIP DNA was analyzed by quantitative PCR against the promoter of the indicated genes using the following primers: DAB2 Forward: 5′-[…]-3′ (SEQ ID NO: 10) and DAB2 Reverse: 5′-[…]-3′ (SEQ ID NO: 11); DLC1 Forward: 5′-[…]-3′ (SEQ ID NO: 12) and DLC1 Reverse: 5′-[…]-3′ (SEQ ID NO: 13); NOXA Forward: 5′-[…]-3′ (SEQ ID NO: 14) and NOXA Reverse: 5′-[…]-3′ (SEQ ID NO: 15); TIMP3 Forward: 5′-[…]-3′ (SEQ ID NO: 16) and TIMP3 Reverse: 5′-[…]-3′ (SEQ ID NO: 17).

[3] = tested on: tumors formed by CARM1 knockout A1847 cells; test: Subcutaneous xenograft model, CARM1 knockout A1847 cells; assay type: in vivo, NSG mice; conditions: 50 mg/kg daily i.p.
Protocol: The protocols were approved by the Institutional Animal Care and Use Committee (IACUC). 5×10^6 control A1847 or A1847 CARM1 knockout cells were unilaterally injected subcutaneously into 6-8-week old female immunocompromised NSG mice (n=5 per group). One week after injection the mice were randomized and treated with vehicle control (20% captisol) or GSK126 (50 mg/kg daily). Tumor size was measured every 3 days for 3 weeks. At end of the experiments, tumors were surgically dissected and tumor burden was calculated based on tumor weight.
EZH2 inhibitors, such as GSK126, are used safely in clinical trials for hematopoietic malignancies (Ribrag et al. Eur J Cancer (2014) 50:197). To determine the effects of EZH2 inhibition in vivo on the growth of CARM1-expressing ovarian tumors, two xenograft models were utilized. In the subcutaneous xenograft models, the injected CARM1-expressing A1847 cells were first allowed to grow for one week to establish the tumors. Mice were then randomized and treated daily with vehicle control or GSK126 (50 mg/kg) by intraperitioneal (i.p.) injection as reported (see, e.g., Bitler et al. Nature Medicine (2015) 21:231-8 and McCabe et al. Nature (2012) 492:108-12). […] To more closely mimic the tumor microenvironment, A1847 cells were orthotopically transplanted into the bursa covering the ovary of immunocompromised NSG mice. […]

BAF155Me = test: Immunoblot for BAF155Me levels; assay type: cell-based, human; conditions: 10 μM GSK126, 7 days
Protocol: FIG. 53 illustrates that the indicated CARM1-high cells were infected with the indicated shCARM1 or controls. Expression of CARM1 and BAF155Me levels and loading control (p-actin) was determined by immunoblot. FIG. 54 illustrates that the indicated cells were treated with 10 μM GSK126 or vehicle control for 7 days. Expression of BAF155 and a loading control (0-actin) was determined by immunoblot.

NHEJ genes = test: Expression of NHEJ genes; assay type: cell-based; conditions: CARM1 expressing cells

## CC[C@H](C)n1cc(C)c2c(C(=O)NCc3c(C)cc(C)[nH]c3=O)cc(-c3ccc(N4CCNCC4)nc3)cc21 [GSK126, (S)-1-(sec-butyl)-N-((4,6-dimethyl-2-oxo-1,2-dihydropyridin-3-yl)methyl)-3-methyl-6-(6-(piperazin-1-yl)pyridin-3-yl)-1H-indole-4-carboxamide]
[1]; 50 mg/kg daily i.p., three weeks
  growth of CARM1-expressing tumors: significantly inhibited
[1]; followed after stopping treatment, vs controls
  survival of tumor bearing mice: significantly improved the survival
CARM1-depleted cells
  sensitivity after CARM1 depletion: abrogating the sensitivity
[2]
  EZH2 association with target genes: without affecting EZH2's association with its target genes
  H3K27Me3 occupancy at target gene loci: decreased H3K27Me3 occupancy
[3]
  growth of tumors formed by CARM1 knockout A1847 cells: failed to inhibit the growth
BAF155Me
  BAF155Me levels: did not affect BAF155Me levels
NHEJ genes
  expression of NHEJ genes: restores the expression of NHEJ genes
